The results in this text go back to patent US20260226057A1, “TRICYCLIC AZEPINONE DERIVATIVES AS SYSTEM XC INHIBITORS” (UCB BIOPHARMA SRL, priority 2023, published 2026).

SMILES strings stand for the structures.

For assay [1], the target named is T1, System Xc^− cystine/glutamate antiporter (Homo sapiens, UniProt Q9UPY5).
T1 sequence (Q9UPY5 1-501): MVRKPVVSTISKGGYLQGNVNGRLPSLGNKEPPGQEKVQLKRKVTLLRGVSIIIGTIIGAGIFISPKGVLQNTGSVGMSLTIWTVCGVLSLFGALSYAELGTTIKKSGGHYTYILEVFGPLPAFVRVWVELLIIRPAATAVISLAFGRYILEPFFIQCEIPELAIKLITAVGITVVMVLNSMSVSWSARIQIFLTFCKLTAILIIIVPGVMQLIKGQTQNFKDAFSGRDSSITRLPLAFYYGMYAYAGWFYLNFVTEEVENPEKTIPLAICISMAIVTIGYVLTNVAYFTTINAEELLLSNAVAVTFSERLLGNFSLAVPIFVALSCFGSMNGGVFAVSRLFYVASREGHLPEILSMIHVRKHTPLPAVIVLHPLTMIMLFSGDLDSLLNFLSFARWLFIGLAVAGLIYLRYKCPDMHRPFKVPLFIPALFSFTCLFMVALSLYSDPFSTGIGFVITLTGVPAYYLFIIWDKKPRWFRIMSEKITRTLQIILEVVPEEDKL
T1 sequence (P08195 1-529 partner): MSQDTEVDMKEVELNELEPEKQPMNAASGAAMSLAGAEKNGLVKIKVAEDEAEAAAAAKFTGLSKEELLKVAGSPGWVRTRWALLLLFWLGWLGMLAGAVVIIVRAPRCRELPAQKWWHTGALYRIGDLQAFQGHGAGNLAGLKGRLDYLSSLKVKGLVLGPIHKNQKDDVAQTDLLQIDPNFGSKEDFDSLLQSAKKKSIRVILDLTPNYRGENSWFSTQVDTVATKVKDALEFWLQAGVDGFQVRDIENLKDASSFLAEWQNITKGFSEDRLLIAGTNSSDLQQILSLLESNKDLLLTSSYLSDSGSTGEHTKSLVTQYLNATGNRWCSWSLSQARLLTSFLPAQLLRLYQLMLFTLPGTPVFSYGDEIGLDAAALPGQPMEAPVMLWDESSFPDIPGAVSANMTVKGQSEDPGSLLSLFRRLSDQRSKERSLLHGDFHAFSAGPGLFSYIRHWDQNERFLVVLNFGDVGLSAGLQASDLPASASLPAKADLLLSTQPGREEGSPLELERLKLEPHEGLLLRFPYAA
The experiment in a line: Cystine-induced glutamate release assay. The format is cell-based. Also on record: endogenous in cells; host or cells: H4 cells. The conditions noted are these: H4 cells, 50 μM L-Cystine, 2 hours, sodium-free HEPES buffer; read-out: Cystine-induced glutamate release assay (range of pIC50) (converted). The source says:
(§1) By measuring respectively, the concentration of glutamate released outside the cell and the L-cystine uptaken in the cell, with increasing concentrations of compounds of formula (I) according to the present invention, the efficacy of said compounds to inhibit the System Xc^− function can be evaluated.
(§2) The efficacy of the compounds to inhibit system Xc^− is represented by measuring the IC50 which corresponds to the concentration of compound necessary to inhibit 50% of the signals from the two control groups; DMSO 1% and Erastin 50 μM in the respective assays. pIC50 values correspond to −log of the IC50 in Molar.
Measurement of cystine-induced glutamate release indicates levels of glutamate (outside of the cell) that are dependent on system Xc^− antiporter function. Upon the addition of L-Cystine to H4 cells, intracellular glutamate is counter-transported and exported in the supernatant.
In this assay, the medium is devoid of sodium to prevent the transport of glutamate by sodium-dependent excitatory amino acid transporters (EAATs). H4 cells were plated on 384-well culture plate at 1×10^4 cells/well in Dulbecco's Modified Eagle Medium (DMEM) with L-glutamine, penicillin/streptomycin and 10% fetal bovine serum (all from ThermoFisher Scientific) and incubated in a humidified CO2 incubator at 37° C. After 2 days, cells were washed 4 times with prewarmed sodium-free HEPES buffer (contents in mM: HEPES 10, KCl 5.4, CaCl2 2.5, MgCl2 1, KH2PO4 0.4, D-Glucose 5, Choline chloride 140), pH 7.4. Glutamate release was induced by addition of 50 μM of L-Cystine (Sigma-Aldrich), together with a test compound of Formula (I) at 1% final DMSO concentration. After 2 hours of incubation in the culture incubator, supernatants were transferred to a low-binding polypropylene 384-well plate to determine L-glutamate concentration using Amplex™ Red Glutamic Acid Assay Kit (ThermoFisher Scientific). Briefly, 10 μL of Amplex™ Red working solution was added to 10 μL of the supernatant, then the mixture was incubated for 30 min at 37° C. Fluorescence intensity was measured by EnVision microplate reader (PerkinElmer).

Assay [2] addresses T1, System Xc^− cystine/glutamate antiporter. Nature of the assay: [^14C]L-Cystine uptake assay. It is filed as cell-based. The following applies: H4 cells, 15 min preincubation, 1 hour at 37° C., sodium-free HEPES buffer; read-out: [^14C] L-Cystine uptake assay (range of pIC50) (converted).
From the text: as §1, §2
In this assay, the medium is devoid of sodium to prevent the transport of glutamate by sodium-dependent excitatory amino acid transporters (EAATs). H4 cells were plated on a 96-well CytoStar-T scintillating microplate (PerkinElmer) at 5×10^4 cells/well in the medium described above. After 1 day, cells were washed one time with the sodium-free HEPES buffer and preincubated with test compounds of Formula (I) (1% final DMSO) for 15 min. Uptake was initiated by adding 0.5 μM L-[1,2, 1′,2′-^14C] Cystine (0.02 mCi/mL, PerkinElmer, Waltham, US) and 4.5 μM L-Cystine (Sigma-Aldrich). After 1 hour at 37° C., plates were counted in a MicroBeta^2 microplate counter (PerkinElmer).

For `CCC(=O)c1ccc(NC(=O)CN2C(=O)[C@H](C)c3ncccc3-c3c2cc(C)nc3F)cc1` [#15], the IC50 in assay [1] and in assay [2] was 39.8 to 100 nM in each case.
`CC(=O)c1ccc(NC(=O)CN2C(=O)C(C)c3ncccc3-c3c2cc(N2CC(F)(F)C2)nc3F)cc1` (stereo not shown) [#7]: the values for the IC50 in assay [1] and in assay [2] were 39.8 to 100 nM and under 15.8 nM, respectively.
